# Measured values as given in US9662059B2, “Imaging agents for monitoring changes of dopamine receptors and methods of using thereof” (The Regents of the University of California, priority 2007, dated 2017).
# Entries after “also recorded” stand apart in the source; their conditions may differ.
# Key:
# D2R [1] = biological target: T1, D2R (Homo sapiens, UniProt P14416); assay: human PET imaging of the pancreas region with whole body HR+ PET scanner; assay type: in vivo; conditions: healthy volunteer, 80 mins post injection
# T1 construct: from tissue; host or cells: pancreas region of a healthy human volunteer, in vivo
# Procedure: The subjects were prepared by placing one intravenous catheter in one arm for administration of the ^18F-fallypride. The subjects were then positioned in the PET scanner, and their alignment was marked for purposes of repositioning. The subjects were requested to lay still during the PET data acquisition in the dimly lit quiet room but were free to open/shut their eyes. The PET data was acquired with an EXACT HR+ PET scanner (in-plane FWHM=4.6 mm, axial FWHM=3.5 mm, axial FOV=15.52 cm). A 5-minute transmission scan using ^68Ge/^68Ga rod sources was acquired prior to administration of the radiopharmaceutical. Scanning was initiated with a 30-second bolus infusion of the radiopharmaceutical followed by a saline flush. A ^18F-fallypride dose of approximately 0.07 mCi/kg was administered to each of the subjects (subjects weight ranged between 70 to 95 kg). The dynamic scanning sequence consisted of 6 frames at 30 seconds, 7 frames at 1 minute, 5 frames at 2 minutes, 4 frames at 5 minutes and 4 frames at 10 minutes. The subject was marked for repositioning and then removed from the scanner for a 20-minute break period. A second dynamic sequence with 8 frames at 10 minutes each was acquired, yielding a total study time of approximately 3 hours. The data set was reconstructed using the ECAT v 7.2 software, with an OSEM algorithm (3 iterations, 16 subsets). […]
# D2R [2] = biological target: T2, D2R (Rattus norvegicus, UniProt P61169); assay: ex vivo autoradiography of brain and pancreas after intravenous ^18F-fallypride; assay type: in vivo, Lewis rats; set-up: The brain and pancreas were isolated and sectioned to 10 μm and 40 μm sections; from tissue; host or cells: brain (striata, cerebellum) and pancreas of living Lewis rats
# Procedure: For ex vivo studies, Lewis rats were anesthetized with halothane and injected intravenously with ^18F-fallypride (0.1 to 0.2 mCi). The rats were then sacrificed at either 60 or 120 min post-injection. The brain and pancreas were isolated and sectioned to 10 μm and 40 μm sections. Slides with tissue samples were exposed to a multipurpose storage phosphor screen for 24 hours and developed; the autoradiographs were generated using the Phosphor Cyclone Imager (Packard Instruments Co.). Brain slices contained the striata, cerebellum and other regions known to contain D2R. The amount of binding to the striata, cerebellum and pancreas was measured as digital light units, DLU/mm^2. Autoradiographs were quantified using a computer-based image analysis system (OptiQuant Version 4.0 Packard Instruments Co., Boston Mass.).
# [3] = arterial blood plasma at 3 hr; cited from earlier work
# D2/D3 receptors = conditions: cited from earlier work
# dopamine D2/D3 receptors = assay: human PET/CT imaging with ^18F-fallypride, standard uptake values in organs; assay type: in vivo; conditions: normal human subject
# Procedure: The subjects were prepared by intravenous administration of ^18F-fallypride. After 80 minutes, the subjects were then positioned in the Siemen's PET/CT Biograph. The subjects were requested to lay still during the PET/CT data acquisition in the dimly lit quiet room but were free to open/shut their eyes. Static scans of 10 mins duration each were acquired at different bed positions.
# The reconstructed dynamic PET data sets were first realigned to a reference summed image (50-80 minutes) to correct for patient motion and slight differences in positioning between the dynamic scans. These dynamic data sets were then used to create time-activity curves as well as pixel-by-pixel parametric images of the distribution volume ratio (DVR). The cerebellum (cerebellar lobes) was chosen as the reference region, having a minimal amount of specific binding to dopaminergic sites. The PET/CT data was analyzed to provide standard uptake values (SUV) in different organs which were identified using the CT image.
# D2R [4] = biological target: T2, D2R; assay: in vitro autoradiography of ^18F-fallypride binding in rat pancreas sections; set-up: from tissue; host or cells: rat pancreas, 10 μm cryosections
# Procedure: Male Sprague-Dawley rats (200-250 g) or male Lewis rats (100-150 g) were anesthetized and decapitated. The brain and pancreas was rapidly removed and frozen in isopentane at −20° C. […] Slices were stored at −20° C. Slices were preincubated for 10 minutes in 50 mM Tris-HCl, 120 mM NaCl, 5 mM KCl buffer (pH 7.4). Slices were then incubated with 1-2 μCi/cc of ^18F-fallypride at 37° C. for 1 hour. […] After incubation, slices were rinsed twice for 2 min in ice-cold buffer, dipped briefly in ice-cold water, blown dry and laid out for autoradiography. Slides with tissue samples were exposed to a multipurpose storage phosphor screen for 24 hours and developed; the autoradiographs were generated using the Phosphor Cyclone Imager (Packard Instruments Co.) The amount of binding in the pancreas was measured as digital light units, DLU/mm^2. Autoradiographs were quantified using a computer-based image analysis system (OptiQuant Version 4.0 Packard Instruments Co., Boston Mass.).
# D2R [5] = biological target: T2, D2R; assay: ^18F-fallypride binding to pancreatic and brain sections of control and streptozotocin-treated rats; set-up: from tissue; host or cells: pancreas, striatum and cerebellum sections of male Sprague-Dawley rats; species or system male Sprague-Dawley rats
# Procedure: Male Sprague-Dawley rats were used to develop a model for diabetes. Streptozotocin (STZ) (80 mg/kg body weight, i.p. injection) chemically destroyed beta-cells and induced diabetes in adult male Sprague-Dawley rats (Lai et al., Am J Physiol Endocrinol Metab 2007 292:E292). Blood glucose was monitored by tail vein-sampling. Diabetic rats were harvested 7 days after the onset of diabetes. ^18F-fallypride binding to pancreatic and brain sections was done for three pairs of STZ- and age-matched rats. […] Specific binding was determined for each animal by subtracting nonspecific binding, measured in digital light units per mm^2 (DLU/mm^2), from total binding for adjacent tissue sections in brain and pancreas.
# [6] = rat killed at 60 min post-injection
# T2 sequence (P61169 whole entry): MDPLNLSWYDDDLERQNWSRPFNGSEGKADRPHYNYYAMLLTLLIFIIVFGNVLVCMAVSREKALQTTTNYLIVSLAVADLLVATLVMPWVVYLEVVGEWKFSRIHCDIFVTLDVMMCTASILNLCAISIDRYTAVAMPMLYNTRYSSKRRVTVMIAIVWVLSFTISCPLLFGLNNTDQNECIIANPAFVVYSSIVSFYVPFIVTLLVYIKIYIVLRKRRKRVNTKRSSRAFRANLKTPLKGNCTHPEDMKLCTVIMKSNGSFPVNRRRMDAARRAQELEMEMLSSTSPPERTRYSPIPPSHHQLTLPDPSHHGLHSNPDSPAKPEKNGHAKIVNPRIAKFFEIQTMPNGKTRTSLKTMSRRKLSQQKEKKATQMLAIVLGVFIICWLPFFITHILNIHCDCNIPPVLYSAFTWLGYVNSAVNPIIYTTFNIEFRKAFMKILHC
# T1 sequence (P14416 whole entry): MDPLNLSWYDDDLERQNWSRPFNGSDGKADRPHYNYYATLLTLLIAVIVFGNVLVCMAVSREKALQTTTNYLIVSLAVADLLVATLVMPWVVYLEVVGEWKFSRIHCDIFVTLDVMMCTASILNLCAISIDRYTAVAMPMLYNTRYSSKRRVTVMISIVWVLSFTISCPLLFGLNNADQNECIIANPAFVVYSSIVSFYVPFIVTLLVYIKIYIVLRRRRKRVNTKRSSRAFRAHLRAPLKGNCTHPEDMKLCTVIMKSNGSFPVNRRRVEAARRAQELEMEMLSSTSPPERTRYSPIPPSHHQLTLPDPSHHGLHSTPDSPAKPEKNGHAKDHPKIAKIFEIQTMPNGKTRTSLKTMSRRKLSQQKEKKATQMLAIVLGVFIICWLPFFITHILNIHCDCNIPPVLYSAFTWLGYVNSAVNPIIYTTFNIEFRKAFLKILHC
compound,measurement,setting,value
C=CCN1CCC[C@H]1CNC(=O)c1cc(CCC[18F])cc(OC)c1OC [^18F-fallypride],Uptake of ^18F-fallypride in the human pancreas,D2R [1],comparable with that in the brain
same,binding in the pancreas,D2R [2]; Rat #2 killed at 120 min,significant amount of binding
same,Ratio of pancreas to cerebellum,D2R [2]; [6],5.3
same,Ratio of striatum to cerebellum,D2R [2]; [6],55.3
same,plasma radioactivity that was ^18F-fallypride,[3],30-40%
same,"decrease in binding with aging, all brain regions",D2/D3 receptors; human brain,> 10 % per decade
same,"BP, orbitofrontal cortex",D2/D3 receptors; younger subject,0.4
same,"BP, putamen",D2/D3 receptors; younger subject,37
same,"Ratio Organ/Ant Abd muscle, Pancreas- Body",dopamine D2/D3 receptors,2.83
same,"Ratio Organ/Ant Abd muscle, Pancreas- Head",dopamine D2/D3 receptors,2.73
same,"Ratio Organ/Ant Abd muscle, Pancreas- Tail",dopamine D2/D3 receptors,3.10
same,"SUV, Anterior Abdominal Muscle",dopamine D2/D3 receptors,0.6
same,"SUV, Gall bladder",dopamine D2/D3 receptors,123
same,"SUV, Kidney",dopamine D2/D3 receptors,2.2
same,"SUV, Liver",dopamine D2/D3 receptors,5.0
same,"SUV, Liver left lobe",dopamine D2/D3 receptors,4.9
same,"SUV, Liver right lobe",dopamine D2/D3 receptors,5.1
same,"SUV, Lung",dopamine D2/D3 receptors,1.1
same,"SUV, Pancreas- Body",dopamine D2/D3 receptors,1.7
same,"SUV, Pancreas- Head",dopamine D2/D3 receptors,1.64
same,"SUV, Pancreas- Tail",dopamine D2/D3 receptors,1.86
same,"SUV, Psoas Muscle",dopamine D2/D3 receptors,0.9
same,"SUV, Spine (bone marrow)",dopamine D2/D3 receptors,2.8
same,"SUV, Spleen",dopamine D2/D3 receptors,1.5
same,^18F-fallypride binding to rat pancreatic sections,"D2R [4]; 10 μm sections, 37° C., 1 hour",binds to rat pancreatic sections
same,"^18F-Fallypride binding, Cerebellum",D2R [5]; Control rats,1597 ± 1382 DLU/mm^2
same,"^18F-Fallypride binding, Pancreas",D2R [5]; Control rats,1393 ± 479 DLU/mm^2
same,"^18F-Fallypride binding, Striatum",D2R [5]; Control rats,"121,167 ± 41,190 DLU/mm^2"
same,change in ^18F-fallypride binding to control tissues striatum and cerebellum,D2R [5]; STZ-treated rats vs control,no change
same,reduction of specific ^18F-fallypride binding in the pancreas,"D2R [5]; STZ-treated rats vs control, p<0.05",~70%
same,"^18F-Fallypride binding, Cerebellum",D2R [5]; Streptozotocin-treated rats,1119 ± 632 DLU/mm^2
same,"^18F-Fallypride binding, Striatum",D2R [5]; Streptozotocin-treated rats,"112,059 ± 35,271 DLU/mm^2"
same,"^18F-Fallypride binding, Pancreas","D2R [5]; Streptozotocin-treated rats, p < 0.05",310 ± 303 DLU/mm^2
NCCc1ccc(O)c(O)c1 [Dopamine],displacement of ^18F-fallypride binding to the pancreas,"D2R [4]; rat pancreatic sections, competitor 100 μM",does not displace; also recorded: did not displace
